Each structure is given as a SMILES string.

Type in all cases: in vivo
In test [1] the test system is gram+bacterial infection on the skin. Kind of test: Treating a topical infection in a human. To be noted: 2.5% cream applied twice daily, after about 4 days. An excerpt: A 50 kg person is diagnosed by a dermatologist with a gram+bacterial infection on the skin of their left foot. They prescribed a 2.5% cream of 5-bromo-2-[[(2E)-3-(2-naphthalenyl)-1-oxo-2-butenyl]amino]benzoic acid which they applied twice daily.

For test [2], the system named is S. aureus. Briefly: Treating a systemic infection in a human. The note with it: two 300 mg tablets three daily. On the procedure:
A 70 kg person has a 102° fever and a bad cough. An internist diagnoses their problem as a systemic gram+bacterial infection of S. aureus. They prescribe trans-3-(naphth-2-yl)but-2-enoic acid-N-(2-carboxyphenyl)amide with the directions to take two 300 mg tablets three daily which the patient does.

The test system of test [3] is badly infected wound. Briefly: Treating a systemic infection in a dog (infected wound). The note with it: 15 kg dog, 300 mg twice a day mixed in food. The method, then: A 15 kg dog with a badly infected wound is given 300 mg twice a day mixed in his food of trans-3-(naphth-2-yl)-but-2-enoic acid-N-(2-carboxyphenyl)amide. After 2 days the wound looks better and after 5 days it is almost healed.

Consider `C/C(=C\C(=O)Nc1ccc(Br)cc1C(=O)O)c1ccc2ccccc2c1` [5-bromo-2-[[(2E)-3-(2-naphthalenyl)-1-oxo-2-butenyl]amino]benzoic acid], for which, in test [1], the “appearance of the skin” value was “appears normal” and the “gram+bacterial infection on the skin of the foot” value is reported as “the infection was gone”.
As to `C/C(=C\C(=O)Nc1ccccc1C(=O)O)c1ccc2ccccc2c1` [trans-3-(naphth-2-yl)-but-2-enoic acid-N-(2-carboxy-phenyl)-amide], in test [2] (after five days), the cough result is “cough is gone” and the temperature entry was “temperature is normal”. In test [2] (after two days), the fever entry is recorded as “the fever comes down”. The “appearance of the infected wound” value in test [3] (after 2 days) is given as “looks better”. For the same compound, in test [3] (after 5 days), the “healing of the infected wound” value is “almost healed”.

These data come from patent US20110054034A1, “METHODS OF USING […] AS ANTIMICROBIAL AGENTS” (priority 2008, published 2011).
